# Assay results published in US7691858B2, “Kinase inhibitors and methods of use thereof” (TargeGen, Inc., priority 2006, dated 2010).
# Counter-ions that a name gives are not always drawn.
# Assays:
# [1] = tested on: VEGF-induced edema; test: Miles assay, VEGF as agonist; assay type: in vivo, Sprague-Dawley rats; settings: vehicle 12; for Score (scale of 0-12): VEGF 200 ng/site, lower score = greater anti-edema activity; for Score with VEGF as agonist (scale of 0-12): 1.5 mg/kg, VEGF 200 ng/injection site
# Method: A rodent model of vascular edema, the Miles assay, was used to screen compounds for their ability to inhibit VEGF-induced edema. […] Sprague-Dawley rats were first injected IV with vehicle alone or test agent, followed by IV injection of Evans blue dye, followed by intradermal injections of saline and VEGF (200 ng/injection site) along both shaved flanks.
# [2] = target: T1, human p120γ subunit of PI3K (Homo sapiens, UniProt P48736); test: PI3K enzymatic activity at two concentrations (Upstate Group); assay type: biochemical; settings: 100% = no inhibition, 0% = complete inhibition
# T1 construct: purchased Upstate Group, Charlottesville, Va; (contract assay)
# Method: The ability of compounds to inhibit the activity of PI3K kinase was determined using biochemical assays. In a first assay, compounds were tested at two concentrations (0.5 and 5 μM) for their ability to inhibit enzymatic activity of the human p120γ subunit of PI3K (the assay being performed under contract by Upstate Group, Charlottesville, Va.).
# [3] = tested on: myocardial infarct; test: Rodent model of acute myocardial infarct (LAD occlusion/reperfusion); assay type: in vivo, Sprague-Dawley rats
# Method: A rodent model of acute myocardial infarct, in which the proximal left anterior descending coronary artery (LAD) is occluded for 60 min followed by reperfusion, was used to determine whether test agents reduced infarct size at 24 hours.
# Myocardial infarcts were created in Sprague-Dawley rats (200-300 g body weight) by a 60 min occlusion of the LAD followed by LAD reperfusion. […] At 24 hr post-treatment, the ischemic zone (area at-risk, AAR) was delineated by re-ligation of the LAD followed by IV injection of alkali blue dye, after which hearts were sectioned along the short axis and stained using triphenyltetrazolium chloride to delineate viable from infarcted myocardium. Photographic images were then analyzed using morphometric software to calculate infarct area as a percent of the at-risk area.
# Rodent MI model: All animal studies followed current “NIH Guidelines for the Use of Laboratory Animals” and were performed according to IACUC-approved protocols. Sprague-Dawley rats (275-300 g) were anesthetized using inhaled isoflurane after which chest walls were shaved and swabbed with iodine. Animals were then intubated and maintained on 2% isoflurane (delivered in 30% O2/70% N2), with optimal respiratory rate and stroke volumes set by a volume-controlled safety ventilator (Inspira Advanced Safety Ventilator; Harvard Apparatus, Holliston, Mass.). Body temperatures were maintained at 35-37° C. using heating pads and five-lead electrocardiograms established. For each animal, a left thoracotomy was performed at the third intercostal space, the heart was exposed and a suture snare tightened around the LAD at the point it appeared from beneath the left atrium. Ischemia was confirmed from blanching of the left ventricle (LV) as well as changes in ECG patterns. After the desired period of occlusion (60 min in the standard model), the suture snare was loosened to allow complete reperfusion (but retained in place using shallow sutures) and the chest closed in layers. […].
# For infarct size determination, LAD occlusion was repeated on each animal 24 hr after the initial occlusion. The ischemic zone (area-at-risk or AAR) was then delineated by i.v. injection of Evans blue dye (5 ml of a 10% saline solution containing 100 U/ml sodium heparin). The heart was explanted, atria and right ventricle trimmed free, and the LV (septal and free walls) frozen at −20° C. to induce rigor. After thawing on ice, the LV was subdivided into six 2 mm thick sections along the short axis using a metal form to guide dissection. Heart sections were stained for 20 min in 37° C. triphenyltetrazolium chloride (TTC, 2% in 0.04 M K2HPO4/0.17 M sucrose) to delineate viable from infarcted myocardium, fixed for 20 min in 10% formalin, then rinsed in saline. For each section, photographs were taken of both anterior and posterior surfaces and these images analyzed (by personnel blinded as to treatment identity) using a morphometric software package (Image Pro Plus; Media Cybernetics, Silver Spring, Md.). The following areas were calculated, based on their differing pixel densities: non-ischemic zone (Evans blue-stained), viable-but-ischemic zone (free of Evans blue but TTC-stained), and infarct-within-ischemic zone (free of both Evans blue and TTC stain). Area values for anterior and posterior views were averaged, and these values used to calculate the following AAR=Viable-but-ischemic Area+Infarct Area Equation 1 Total LV Area=AAR+Non-ischemic Area Equation 2
# [4] = tested on: cerebral infarct; test: Rodent model of cerebral stroke (permanent middle cerebral artery occlusion); assay type: in vivo, mice; settings: 1 mg/kg BW IV 60 min after ligation; for % Infarct reduction: vs vehicle; for Infarct area in mm^3 (mean ± SEM): 24 hours
# Method: A rodent model of cerebral stroke, in which the middle cerebral artery is permanently occluded, was used to determine whether test agents reduced infarct size at 24 hours.
# Cerebral strokes were created in mice by permanent ligation of the middle cerebral artery using a cauterizing tool, followed 60 min later by IV injection of either vehicle alone (50% PEG400 in water) or test agents (at 1 mg/kg BW). Twenty four hours later, brains were sectioned and stained using triphenyltetrazolium chloride to delineate viable from infarcted tissue. Photographic images were then analyzed using morphometric software to calculate infarct area.
# [5] = tested on: histamine-induced edema; test: Miles assay, histamine as agonist; assay type: in vivo, Sprague-Dawley rats; settings: 1.5 mg/kg; histamine 10 μg/injection site; vehicle 12
# Method: Sprague-Dawley rats were first injected IV with vehicle alone or test agent, followed by IV injection of Evans blue dye, followed by intradermal injections of saline and VEGF (200 ng/injection site) along both shaved flanks. […] The ability of test agents to influence edema induced by agonists other than VEGF was also tested. Compounds cited in this application inhibited edema formation induced using histamine as an agonist, for example, as shown below. The ability of test agent to influence vascular edema was tested as above, except that the ability to block edema was tested using either VEGF or histamine as the agonist (200 ng and 10 μg/injection site, respectively).
# [6] = 1.5 mg/kg BW IV at 90 min post-reperfusion, 24 hr
# [7] = 1.5 mg/kg BW IV at 90 min post-reperfusion, vs vehicle
# T1 sequence (P48736 whole entry): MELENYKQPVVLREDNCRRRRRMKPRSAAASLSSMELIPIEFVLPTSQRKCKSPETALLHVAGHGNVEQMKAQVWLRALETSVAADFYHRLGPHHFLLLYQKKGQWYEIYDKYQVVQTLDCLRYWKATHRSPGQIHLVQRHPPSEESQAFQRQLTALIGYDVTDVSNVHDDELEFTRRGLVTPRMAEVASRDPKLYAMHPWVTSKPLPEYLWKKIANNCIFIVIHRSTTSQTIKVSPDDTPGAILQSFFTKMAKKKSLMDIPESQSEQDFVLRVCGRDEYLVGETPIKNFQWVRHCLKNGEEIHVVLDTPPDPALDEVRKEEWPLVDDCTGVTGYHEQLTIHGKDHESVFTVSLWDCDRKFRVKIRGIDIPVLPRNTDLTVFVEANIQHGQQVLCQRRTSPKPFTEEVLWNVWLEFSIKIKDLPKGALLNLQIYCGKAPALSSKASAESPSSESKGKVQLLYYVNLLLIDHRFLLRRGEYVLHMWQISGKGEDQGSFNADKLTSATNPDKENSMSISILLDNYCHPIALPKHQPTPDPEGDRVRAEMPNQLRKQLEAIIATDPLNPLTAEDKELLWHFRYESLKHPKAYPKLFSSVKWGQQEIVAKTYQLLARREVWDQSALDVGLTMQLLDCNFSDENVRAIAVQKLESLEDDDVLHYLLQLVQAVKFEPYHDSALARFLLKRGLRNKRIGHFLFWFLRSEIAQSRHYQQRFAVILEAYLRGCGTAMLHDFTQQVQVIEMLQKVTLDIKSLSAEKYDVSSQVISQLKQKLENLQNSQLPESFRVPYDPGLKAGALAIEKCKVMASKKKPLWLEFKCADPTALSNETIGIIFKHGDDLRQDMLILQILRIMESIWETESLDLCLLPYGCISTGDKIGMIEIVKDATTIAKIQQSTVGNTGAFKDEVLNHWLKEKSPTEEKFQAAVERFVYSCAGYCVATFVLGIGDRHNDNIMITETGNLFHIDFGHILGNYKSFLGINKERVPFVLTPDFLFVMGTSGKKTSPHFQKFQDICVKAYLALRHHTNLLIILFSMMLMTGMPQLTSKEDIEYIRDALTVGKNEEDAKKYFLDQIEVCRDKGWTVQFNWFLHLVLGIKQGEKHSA
smiles,measurement,setting,value
"Nc1cncc2nc(-c3ccc(O)c(O)c3)c(-c3ccc(O)c(O)c3)nc12 [2,3-(3,4-Dihydroxyphenyl)-pyrido[3,4-b]pyrazin-8-ylamine]",Score (scale of 0-12),[1]; 0.01 mg/kg IV,6
"Nc1cncc2nc(-c3cccc(O)c3)c(-c3cccc(O)c3)nc12 [3,3′-(8-aminopyrido[3,4-]pyrazine-2,3-diyl)diphenol]",Percent Control Value at 0.5 μM,[2]; 0.5 μM,101%
same,Percent Control Value at 5 μM,[2]; 5 μM,90%
"O=C(Nc1cc2ccccc2[nH]1)c1cc(O)c(O)c(O)c1 [3,4,5-Trihydroxy-N-(1H-indol-2-yl)-benzamide]",Score with VEGF as agonist (scale of 0-12),[1],5
"O=C(Nc1ccccc1-c1cc2ccccc2[nH]1)c1cc(O)c(O)c(O)c1 [3,4,5-Trihydroxy-N-[2-(1H-indol-2-yl)-phenyl]-benzamide]",Score with VEGF as agonist (scale of 0-12),[1],4
O=C(CCc1ccc(O)cc1)Nc1ccccc1-c1cc2ccccc2[nH]1 [3-(4-Hydroxy-phenyl)-N-[2-(1H-indol-2-yl)-phenyl]-propionamide],Score (scale of 0-12),[1]; 1.5 mg/kg IV,2
"Cl.Cl.Nc1nc(N)c2nc(-c3cccc(O)c3)c(-c3cccc(O)c3)nc2n1 [3-[2,4-diamino-6-(3-hydroxyphenyl)pteridin-7-yl] phenol dihydrochloride salt]",Score (scale of 0-12),[1]; 0.01 mg/kg IV,3
same,Score (scale of 0-12),[1]; 0.1 mg/kg IV,4
same,Score (scale of 0-12),[1]; 1 mg/kg IV,4
same,"Infarct (% AAR, mean ± SEM)","[3]; 0.1 mg/kg BW IV at 90 min post-reperfusion, 24 hr",37.7 ± 5.8 % AAR
same,% Infarct reduction,"[3]; 0.1 mg/kg BW IV at 90 min post-reperfusion, vs vehicle",30%
same,% Infarct reduction,"[3]; 0.1 mg/kg, administration 60 and 240 min post-occlusion",55%
same,"Infarct (% AAR, mean ± SEM)","[3]; 0.1 mg/kg, administration 60 and 240 min post-occlusion, vehicle 54.0 ± 2.9",24.2 ± 4.9 % AAR
same,% Infarct reduction,"[3]; 0.1 mg/kg, administration 60 min post-occlusion",60%
same,"Infarct (% AAR, mean ± SEM)","[3]; 0.1 mg/kg, administration 60 min post-occlusion, vehicle 54.0 ± 2.9",21.6 ± 5.7 % AAR
same,% Infarct reduction,"[3]; 0.1 mg/kg, administration 120 min post-occlusion",65%
same,"Infarct (% AAR, mean ± SEM)","[3]; 0.1 mg/kg, administration 120 min post-occlusion, vehicle 54.0 ± 2.9",18.8 ± 5.6 % AAR
same,% Infarct reduction,"[3]; 0.1 mg/kg, administration 240 min post-occlusion",65%
same,"Infarct (% AAR, mean ± SEM)","[3]; 0.1 mg/kg, administration 240 min post-occlusion, vehicle 54.0 ± 2.9",19.1 ± 4.0 % AAR
same,"Infarct (% AAR, mean ± SEM)","[3]; 1.0 mg/kg BW IV at 90 min post-reperfusion, 24 hr",46.4 ± 2.6 % AAR
same,% Infarct reduction,"[3]; 1.0 mg/kg BW IV at 90 min post-reperfusion, vs vehicle",Not significant
O=C(Nc1ccccc1-c1cc2ccccc2[nH]1)c1cccnc1C(=O)O [3-[2-(1H-Indol-2-yl)-phenylcarbamoyl]-pyridine-2-carboxylic acid],Score (scale of 0-12),[1]; 0.5 mg/kg IV,5
"Nc1nc(N)c2nc(-c3ccc(O)cc3)cnc2n1 [4-(2,4-Diamino-pteridin-6-yl)-phenol (sulfate salt)]",Score (scale of 0-12),[1]; 5 mg/kg IV,2
"Cl.Nc1ncnc2nc(-c3ccc(O)c(O)c3)c(-c3ccc(O)c(O)c3)nc12 [4-[4-amino-6-(3,4-dihydroxyphenyl)pteridin-7-yl]benzene-1,2-diol chloride salt]",Score (scale of 0-12),[1]; 0.01 mg/kg IV,6
same,Score (scale of 0-12),[1]; 0.1 mg/kg IV,3
same,Score (scale of 0-12),[1]; 1 mg/kg IV,5
"Nc1nc(N)c2nc(CNCc3ccc(O)c(O)c3)cnc2n1 [4-{[(2,4-Diamino-pteridin-6-ylmethyl)-amino]-methyl}-benzene-1,2-diol]",Score (scale of 0-12),[1]; 5 mg/kg IV,4
"Nc1ncnc2nc(-c3ccccn3)c(-c3ccccn3)nc12 [6,7-Di-pyridin-2-yl-pteridin-4-ylamine]",% Infarct reduction,[4],Not significant
"Oc1ncnc2nc(-c3ccccc3)c(-c3ccccc3)nc12 [6,7-Diphenyl-pteridin-4-ol]",Score with VEGF as agonist (scale of 0-12),[1],3
"Cl.Nc1nc(N)c2nc(-c3ccc(O)c(O)c3)c(-c3ccc(O)c(O)c3)nc2n1 [6,7-bis(3,4-dihydroxyphenyl)-pteridine-2,4,-diamine, hydrochloride salt]","Infarct (% AAR, mean ± SEM)",[3]; [6],36.3 ± 6.3 % AAR
same,% Infarct reduction,[3]; [7],33%
"Nc1ncnc2nc(-c3ccc(O)cc3)c(-c3ccc(O)cc3)nc12.O=S(=O)(O)O [6,7-bis(4-hydroxyphenyl)-pteridin-4-ylamine sulfate salt]",Score with VEGF as agonist (scale of 0-12),[1],4
same,Score with histamine as agonist (scale of 0-12),[5],3
same,"Infarct (% AAR, mean ± SEM)",[3]; [6],60.6 ± 1.8 % AAR
same,% Infarct reduction,[3]; [7],20%
same,Infarct area in mm^3 (mean ± SEM),[4],18.3 ± 2.6 mm^3
same,% Infarct reduction,[4],53%
"Nc1nc(N)c2nc(CNCc3ccccn3)cnc2n1 [6-{[(Pyridin-2-ylmethyl)-amino]-methyl}-pteridine-2,4-diamine]",Score (scale of 0-12),[1]; 0.1 mg/kg IV,4
"Cc1ccc(-c2nn(C(C)(C)C)c3ncnc(N)c23)cc1 [PP1, reference compound]",Infarct area in mm^3 (mean ± SEM),[4],35.4 ± 6.4 mm^3
same,% Infarct reduction,[4],Not significant
"CN(C)S(=O)(=O)c1ccc2c(c1)/C(=C/c1cc3c([nH]1)CCCC3)C(=O)N2 [SU6656, reference compound]",% Infarct reduction,[4],Not significant
